Measured values reported in article PMC12055641, “The Study of Antistaphylococcal Potential of Omiganan and Retro-Omiganan Under Flow Conditions” (Probiotics and Antimicrobial Proteins, 2024).
No end group written: not given here.

Legend:
[1] = test system: human keratinocytes (HaCaT); format: cell-based; conditions: 24 h
Procedure: To evaluate the cytotoxicity of the peptides (IC50), the classic MTT assay on 96-well plates was performed for human keratinocytes (HaCaT) which were acquired from the ATCC. The assay utilizes colorimetric determination of the cell metabolic activity, and the color intensity reflects the number of live cells that can be measured spectrophotometrically. […] DMSO was added to the control cells at a final concentration of 1.0% (v/v), which was related to the maximum concentration of the solvent compounds used in the experiment. After 24 h of incubation at 37 °C (humidified 5% CO2 incubator) with the peptides, a medium containing 1 mg/mL of MTT was added to the wells up to a final concentration of 0.5 mg/mL. Subsequently, the plates were incubated at 37 °C for 4 h. Then, the medium was aspirated, and the formazan product was solubilized with DMSO. The background absorbance at 630 nm was subtracted from that at 570 nm for each well (Epoch, BioTek Instruments, USA). Six replicates were conducted for each concentration. All experiments were repeated at least twice and the resulting IC50 values were calculated with GraFit 7 software (v. 7.0, Erithacus, Berkley, CA, USA).

[2] = test system: S. aureus ATCC 12598 biofilm; conditions: ATCC 12598, reference strain
Excerpt: (§1) Clinical S. aureus strains were collected from patients with atopic dermatitis during their visits to the Outpatient Clinic and hospitalization in the Department of Dermatology, Venereology and Allergology at Medical University of Gdańsk (following the approval from the ethics committee, Approval Number NKBBN/242–477/2014). Reference strains of S. aureus ATCC 25923, S. aureus ATCC 33591, S. aureus ATCC 9144, and S. aureus ATCC 12598 were obtained from the American Type Culture Collection. All the strains were stored at − 80 °C in Roti®-Store cryo vials (Carl Roth GmbH, Karlsruhe, Germany) and before the tests were transferred into fresh Mueller–Hinton Medium (BioMaxima, Lublin, Poland) and incubated for 24 h at 37 °C. Subsequently, each bacterial inoculum was seeded on Mueller–Hinton agar plates (BioMaxima) and incubated again for 24 h. The cultures prepared in this way were used in further antimicrobial assays. Minimum inhibitory concentrations (MICs) were determined according to the Clinical and Laboratory Standards Institute recommendations. […] The experiments were conducted on 96-well microtiter plates, with a final volume of 100 μL. Additionally, in the case of daptomycin, the medium was supplemented with Ca^2+ (50 mg/L). Cell densities were adjusted spectrophotometrically (Multiskan™ GO Microplate Spectrophotometer, Thermo Scientific) at 600 nm. The MICs were taken as the lowest drug concentration at which a visible growth of the microorganisms was inhibited. Minimum biofilm eliminating concentrations (MBECs) were determined on 96-well flat-bottomed microtiter polystyrene plates with resazurin (7-hydroxy-3H-phenoxazin-3-one 10-oxide sodium salt) as a cell viability reagent. To do this, the plates were filled with 100 μL of the initial inoculums of bacteria (0.5 × 10^7 CFU/mL) in the Mueller–Hinton broth and incubated for 24 h at 37 °C. […] After 24 h of incubation, 20 μL of resazurin (4 mg/mL) was added to each well and the MBEC values were read. Minimum biofilm inhibitory concentrations (MBICs) were also determined on 96-well flat-bottomed microtiter polystyrene plates as described previously. To do this, 50 μL of the compounds in the concentration range, diluted MHB, were prepared. Subsequently, the 50 μL of the staphylococcal inoculums were added to reach the same density of bacteria as that in the MBEC assay. After 24 h of incubation at 37 °C, the wells were rinsed three times with PBS and the fresh medium (100 μL) with resazurin (0.6 mg/mL) was added. Then, after 1 h of incubation, MBICs were read. […] All experiments were conducted in triplicate.

S. aureus ATCC 12598 = conditions: ATCC 12598, reference strain
Excerpt: as §1

[3] = test system: S. aureus ATCC 25923 biofilm; conditions: ATCC 25923, reference strain
Excerpt: as §1

S. aureus ATCC 25923 = conditions: ATCC 25923, reference strain
Excerpt: as §1

[4] = test system: S. aureus ATCC 33591 (MRSA) biofilm; conditions: ATCC 33591, 24 h
Excerpt: as §1

[5] = test system: S. aureus ATCC 33591 (MRSA); conditions: ATCC 33591, 24 h
Excerpt: as §1

[6] = test system: S. aureus ATCC 9144 biofilm; conditions: ATCC 9144, reference strain
Excerpt: as §1

S. aureus ATCC 9144 = conditions: ATCC 9144, reference strain
Excerpt: as §1

[7] = test system: S. aureus clinical strain 004N (MRSA) biofilm; conditions: clinical strain 004N biofilm, 24 h
Excerpt: as §1

[8] = test system: S. aureus clinical strain 004N (MRSA); conditions: 24 h
Excerpt: as §1

[9] = test system: S. aureus clinical strain 005S biofilm
Excerpt: as §1

[10] = test system: S. aureus clinical strain 005S
Excerpt: as §1

[11] = test system: S. aureus clinical strain 009S biofilm
Excerpt: as §1

[12] = test system: S. aureus clinical strain 009S
Excerpt: as §1

[13] = test system: S. aureus clinical strain 015N (MRSA) biofilm; conditions: clinical strain 015N biofilm, 24 h
Excerpt: as §1

[14] = test system: S. aureus clinical strain 015N (MRSA); conditions: 24 h
Excerpt: as §1

[15] = test system: S. aureus clinical strain 030N biofilm
Excerpt: as §1

[16] = test system: S. aureus clinical strain 030N
Excerpt: as §1

[17] = test system: S. aureus clinical strain 031S biofilm
Excerpt: as §1

[18] = test system: S. aureus clinical strain 031S
Excerpt: as §1

[19] = test system: S. aureus clinical strain 043SC (MRSA) biofilm; conditions: clinical strain 043SC biofilm, 24 h
Excerpt: as §1

[20] = test system: S. aureus clinical strain 043SC (MRSA); conditions: 24 h
Excerpt: as §1

[21] = test system: S. aureus clinical strain 051N (MRSA) biofilm; conditions: clinical strain 051N biofilm, 24 h
Excerpt: as §1

[22] = test system: S. aureus clinical strain 051N (MRSA); conditions: 24 h
Excerpt: as §1

[23] = test system: S. aureus clinical strain 060S biofilm
Excerpt: as §1

[24] = test system: S. aureus clinical strain 060S
Excerpt: as §1

[25] = test system: biofilm of reference and clinical strains of staphylococci (S. aureus)
Excerpt: as §1

[26] = test system: reference and clinical strains of staphylococci (S. aureus); conditions: 24 h
Excerpt: as §1

S. aureus ATCC 6538 = conditions: ATCC 6538, reference strain
[27] = test system: S. aureus ATCC 6538 biofilm; conditions: ATCC 6538, reference strain
[28] = test system: S. aureus ATCC 6538 biofilm; conditions: ATCC 6538, reference strain; remark: listed apart in the source

ILRWPWWPWRRK-NH2 [Omiganan TFA^−]
IC50 [1]: 77.10 µg/mL
MBEC [2]: 32 µg/mL
MBIC [2]: 32 µg/mL
MIC (S. aureus ATCC 12598): 8 µg/mL
MBEC [3]: 128 µg/mL
MBIC [3]: 32 µg/mL
MIC (S. aureus ATCC 25923): 16 µg/mL
MBEC [4]: 32 µg/mL
MBIC [4]: 32 µg/mL
MIC [5]: 16 µg/mL
MBEC [6]: 32 µg/mL
MBIC [6]: 16 µg/mL
MIC (S. aureus ATCC 9144): 4 µg/mL
MBEC [7]: 64 µg/mL
MBIC [7]: 16 µg/mL
MIC [8]: 8 µg/mL
MBEC [9]: 16 µg/mL
MBIC [9]: 2 µg/mL
MIC [10]: 1 µg/mL
MBEC [11]: 32 µg/mL
MBIC [11]: 1 µg/mL
MIC [12]: 0.5 µg/mL
MBEC [13]: 64 µg/mL
MBIC [13]: 16 µg/mL
MIC [14]: 16 µg/mL
MBEC [15]: 32 µg/mL
MBIC [15]: 16 µg/mL
MIC [16]: 8 µg/mL
MBEC [17]: 16 µg/mL
MIC [18]: 1 µg/mL
MBEC [19]: 32 µg/mL
MBIC [19]: 16 µg/mL
MIC [20]: 8 µg/mL
MBEC [21]: 64 µg/mL
MBIC [21]: 32 µg/mL
MIC [22]: 16 µg/mL
MBEC [23]: 16 µg/mL
MBIC [23]: 2 µg/mL
MIC [24]: 2 µg/mL
mean MBEC (corrected values) ([25]; 24 h): 42.29 µg/mL
mean MBEC (initial values) ([25]; 24 h): 42.29 µg/mL
mean MBIC (initial values) ([25]; average over 14 strains, polystyrene 96-well plates, not corrected): 17.54 µg/mL
mean MBIC (corrected values) ([25]; biofilm of reference and clinical strains of staphylococci, 24 h): 17.54 µg/mL
mean MIC (corrected values) [26]: 7.75 µg/mL
mean MIC (initial values) [26]: 7.75 µg/mL
MIC (S. aureus ATCC 6538): 4 µg/mL
MBIC [27]: 32 µg/mL
MBEC [28]: 32 µg/mL
